Laboratory results: patent US8778926B2, “Compounds, pharmaceutical compositions and uses thereof” (Boehringer Ingelheim International GmbH, priority 2011, dated 2014)

The molecules below were run against T1, human GPR119 (Homo sapiens, UniProt Q8TDV5) (assay: AlphaScreen cAMP assay, activation of GPR119 in Min-6/hGPR119 cells). Conditions: MIN6 cells stably transfected with human GPR119; intracellular cAMP; 45 minutes incubation at room temperature.
T1 construct: expression vector for human GPR119 cDNA (Acc. No. NP_848566); expressed in transfected cells
T1 sequence (Q8TDV5 1-335): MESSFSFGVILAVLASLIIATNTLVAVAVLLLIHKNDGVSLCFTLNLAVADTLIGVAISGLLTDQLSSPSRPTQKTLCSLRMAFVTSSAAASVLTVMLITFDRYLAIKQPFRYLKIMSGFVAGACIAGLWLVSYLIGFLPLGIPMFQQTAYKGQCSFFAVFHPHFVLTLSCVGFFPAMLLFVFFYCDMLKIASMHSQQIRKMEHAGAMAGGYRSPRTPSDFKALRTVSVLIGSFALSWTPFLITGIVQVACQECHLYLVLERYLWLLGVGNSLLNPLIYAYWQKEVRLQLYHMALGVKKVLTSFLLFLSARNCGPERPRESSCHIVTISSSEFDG
Type: cell-based
Description: The compounds of formula I according to the invention modulate the activity of the G-protein-coupled receptor GPR119. The effect of the compounds on the activation of GPR119 and on the stimulation of intracellular cAMP concentration is determined using the AlphaScreen cAMP Assay Kit (Cat. No. #6760625R) made by PerkinElmer.
MIN6 cells [Miyazaki J et al. Endocrinology. 1990 July; 127(1):126-32] are stably transfected with an expression vector for human GPR119 cDNA (Acc. No. NP_848566). Min-6/hGPR119 cells are cultured in DMEM, 10% FBS, 500 μM β-mercaptoethanol, 0.3 mg/mL Geniticin, 2 mM GlutaMAX at 37° C. 5% CO2. For the assay, the cells are seeded in Optiplates (white, 384-well, 160 W— barcoded, TC, sterile with lid, Cat. No. #6007688 (Perkin Elmer); 10000 cells/well; 50 μl). The plates covered with lids are then incubated for 24 hours at 37° C./5% CO2. After the medium is aspirated from the wells completely, 10 μl of the test compound are added, the compounds are diluted using stimulating buffer (140 mM NaCl, 3.6 mM KCl, 0.5 mM NaH2PO4, 0.5 mM MgSO4, 1.5 mM CaCl2, 10 mM Hepes, 5 mM NaHCO3; pH 7.4. 0.5 mM IBMX and 0.1% BSA, the final DMSO concentration is 1%). After 45 minutes incubation at room temperature (approx. 20° C.), the cAMP concentrations are determined using the AlphaScreen cAMP Assay Kit (Cat. No. #6760625R from PerkinElmer).
With `CC(C)c1noc(N2CCC([C@]3(C)Cc4cc(-c5ccc(S(C)(=O)=O)cc5)ncc4O3)CC2)n1` (single isomer, unassigned) [Example 26] the EC50 was 0.009 µM. For `CCCc1noc(N2CCC([C@]3(C)Cc4cc(-c5ccc(S(C)(=O)=O)cc5)ncc4O3)CC2)n1` (single isomer, unassigned) [Example 27], the EC50 was 0.015 µM. Molecule `CCc1cnc(N2CCC([C@]3(C)Cc4cc(-c5ccc(S(C)(=O)=O)cc5)ncc4O3)CC2)nc1` (single isomer, unassigned) [Example 28] has an EC50 of 0.022 µM. `CC(C)(C)c1noc(N2CCC([C@]3(C)Cc4cc(-c5ccc(S(C)(=O)=O)cc5)ncc4O3)CC2)n1` (single isomer, unassigned) [Example 29] was tested, and the EC50 was 0.051 µM. With `CCc1cnc(N2CCC([C@@H]3Cc4cc(C5=CCN(S(C)(=O)=O)CC5)ncc4O3)CC2)nc1` (single isomer, unassigned) [Example 30] the EC50 was 0.004 µM. Molecule `CCc1cnc(N2CCC([C@H]3Cc4cc(C5=CCN(S(C)(=O)=O)CC5)ncc4O3)CC2)nc1` (single isomer, unassigned) [Example 31] has an EC50 of 0.003 µM. `Cc1cnc(N2CCC([C@@H]3Cc4cc(C5=CCN(S(C)(=O)=O)CC5)ncc4O3)CC2)nc1` (single isomer, unassigned) [Example 32] gave an EC50 of 0.029 µM. `Cc1cnc(N2CCC([C@H]3Cc4cc(C5=CCN(S(C)(=O)=O)CC5)ncc4O3)CC2)nc1` (single isomer, unassigned) [Example 33] was tested, and the EC50 was 0.006 µM. `C[C@@]1(C2CCN(c3ncc(C(F)(F)F)cn3)CC2)Cc2cc(C3=CCN(S(C)(=O)=O)CC3)ncc2O1` (single isomer, unassigned) [Example 35] was tested, and the EC50 was 0.003 µM. `CCc1cnc(N2CCC([C@]3(C)Cc4cc(C5=CCN(S(C)(=O)=O)CC5)ncc4O3)CC2)nc1` (single isomer, unassigned) [Example 36] gave an EC50 of 0.005 µM. In the case of `C[C@@]1(C2CCN(c3ccc(C(F)(F)F)cn3)CC2)Cc2cc(C3=CCN(S(C)(=O)=O)CC3)ncc2O1` (single isomer, unassigned) [Example 37], the EC50 is reported as 0.006 µM. `C[C@@]1(C2CCN(c3cnc(C(F)(F)F)cn3)CC2)Cc2cc(C3=CCN(S(C)(=O)=O)CC3)ncc2O1` (single isomer, unassigned) [Example 38] gave an EC50 of 0.014 µM. For `C[C@@]1(C2CCN(c3ncc(C(F)(F)F)cc3F)CC2)Cc2cc(C3=CCN(S(C)(=O)=O)CC3)ncc2O1` (single isomer, unassigned) [Example 40], the EC50 was 0.002 µM. For `Cc1cnc(N2CCC([C@]3(C)Cc4cc(C5=CCN(S(C)(=O)=O)CC5)ncc4O3)CC2)nc1` (single isomer, unassigned) [Example 41], the EC50 was 0.006 µM. For `CC(C)c1noc(N2CCC([C@]3(C)Cc4cc(C5=CCN(S(C)(=O)=O)CC5)ncc4O3)CC2)n1` (single isomer, unassigned) [Example 42], the EC50 was 0.011 µM. `CC(C)c1nc(N2CCC([C@]3(C)Cc4cc(C5=CCN(S(C)(=O)=O)CC5)ncc4O3)CC2)no1` (single isomer, unassigned) [Example 43] gave an EC50 of 0.009 µM. Work on `CCCc1nc(N2CCC(C3Cc4cc(C5=CCN(S(C)(=O)=O)CC5)ncc4O3)CC2)no1` (single isomer, unassigned) [Example 44] yielded an EC50 of 0.006 µM. In the case of `CC(C)c1nc(N2CCC([C@H]3Cc4cc(C5=CCN(S(C)(=O)=O)CC5)ncc4O3)CC2)no1` (single isomer, unassigned) [Example 45], the EC50 is reported as 0.013 µM. `CC(C)c1nc(N2CCC([C@@H]3Cc4cc(C5=CCN(S(C)(=O)=O)CC5)ncc4O3)CC2)no1` (single isomer, unassigned) [Example 46] was tested, and the EC50 was 0.018 µM. In the case of `CCCc1nc(N2CCC([C@]3(C)Cc4cc(C5=CCN(S(C)(=O)=O)CC5)ncc4O3)CC2)no1` (single isomer, unassigned) [Example 47], the EC50 is reported as 0.006 µM. `CC1(C2CCN(c3nnc(C(F)(F)F)s3)CC2)Cc2cc(C3=CCN(S(C)(=O)=O)CC3)ncc2O1` (single isomer, unassigned) [Example 48, 5-(1-Methanesulfonyl-1,2,3,6-tetrahydro-pyridin-4-yl)-2-methyl-2-[1-(5-trifluoromethyl-[1,3,4]thiadiazol-2-yl)-piperidin-4-yl]-2,3-dihydro-furo[2,3-c]pyridine] gave an EC50 of 0.012 µM. Molecule `CCCc1nc(N2CCC([C@@H]3Cc4cc(C5=CCN(S(C)(=O)=O)CC5)ncc4O3)CC2)no1` (single isomer, unassigned) [Example 49] has an EC50 of 0.025 µM. In the case of `CC(C)(C)c1nc(N2CCC([C@H]3Cc4cc(C5=CCN(S(C)(=O)=O)CC5)ncc4O3)CC2)no1` (single isomer, unassigned) [Example 50], the EC50 is reported as 0.005 µM. Molecule `CC(C)(C)c1nc(N2CCC([C@@H]3Cc4cc(C5=CCN(S(C)(=O)=O)CC5)ncc4O3)CC2)no1` (single isomer, unassigned) [Example 51] has an EC50 of 0.007 µM. `CS(=O)(=O)N1CC=C(c2cc3c(cn2)O[C@H](C2CCN(c4ncc(C(F)(F)F)cn4)CC2)C3)CC1` (single isomer, unassigned) [Example 52] showed an EC50 of 0.019 µM. Work on `Cc1cnc(N2CCC([C@]3(C)Cc4cc(C5=CCN(S(C)(=O)=O)CC5)ncc4O3)CC2)cn1` (single isomer, unassigned) [Example 53] yielded an EC50 of 0.02 µM. With `CC(C)c1noc(N2CCC([C@@H]3Cc4cc(C5=CCN(S(C)(=O)=O)CC5)ncc4O3)CC2)n1` (single isomer, unassigned) [Example 55] the EC50 was 0.016 µM. `CC1(c2nc(N3CCC([C@@H]4Cc5cc(C6=CCN(S(C)(=O)=O)CC6)ncc5O4)CC3)no2)CC1` (single isomer, unassigned) [Example 57] showed an EC50 of 0.036 µM. Work on `CS(=O)(=O)N1CC=C(c2cc3c(cn2)O[C@@H](C2CCN(c4ncc(C(F)(F)F)cn4)CC2)C3)CC1` (single isomer, unassigned) [Example 79] yielded an EC50 of 0.003 µM. `CS(=O)(=O)N1CC=C(c2cc3c(cn2)O[C@@H](C2CCN(c4cnc(C(F)(F)F)cn4)CC2)C3)CC1` (single isomer, unassigned) [Example 80] showed an EC50 of 0.005 µM. For `CS(=O)(=O)N1CC=C(c2cc3c(cn2)O[C@@H](C2CCN(c4nnc(C(F)(F)F)s4)CC2)C3)CC1` (single isomer, unassigned) [Example 81], the EC50 was 0.01 µM. `CS(=O)(=O)N1CC=C(c2cc3c(cn2)O[C@@H](C2CCN(c4ccc(C(F)(F)F)cn4)CC2)C3)CC1` (single isomer, unassigned) [Example 82] gave an EC50 of 0.003 µM. `CS(=O)(=O)N1CC=C(c2cc3c(cn2)O[C@@H](C2CCN(c4ncc(Cl)cn4)CC2)C3)CC1` (single isomer, unassigned) [Example 83] showed an EC50 of 0.003 µM. `CS(=O)(=O)N1CC=C(c2cc3c(cn2)O[C@@H](C2CCN(c4ncc(C(F)(F)F)cc4F)CC2)C3)CC1` (single isomer, unassigned) [Example 84] was tested, and the EC50 was 0.002 µM. Molecule `CCc1cnc(N2CCC([C@H]3Cc4cc(-c5ccc(S(C)(=O)=O)cc5)ncc4O3)CC2)nc1` (single isomer, unassigned) [Example 85] has an EC50 of 0.007 µM. For `CS(=O)(=O)N1CC=C(c2cc3c(cn2)O[C@H](C2CCN(c4ncc(Cl)cn4)CC2)C3)CC1` (single isomer, unassigned) [Example 86], the EC50 was 0.012 µM. `CS(=O)(=O)c1ccc(-c2cc3c(cn2)O[C@@H](C2CCN(c4ncc(Cl)cn4)CC2)C3)cc1` (single isomer, unassigned) [Example 87] showed an EC50 of 0.013 µM. `C[C@]1(C2CCN(c3ncc(Cl)cn3)CC2)Cc2cc(C3=CCN(S(C)(=O)=O)CC3)ncc2O1` (single isomer, unassigned) [Example 88] showed an EC50 of 0.059 µM. `C[C@@]1(C2CCN(c3ncc(C4CC4)cn3)CC2)Cc2cc(-c3ccc(S(C)(=O)=O)cc3)ncc2O1` (single isomer, unassigned) [Example 89] gave an EC50 of 0.016 µM. Work on `CS(=O)(=O)c1ccc(-c2cc3c(cn2)O[C@H](C2CCN(c4ncc(Cl)cn4)CC2)C3)cc1` (single isomer, unassigned) [Example 90] yielded an EC50 of 0.06 µM. For `CS(=O)(=O)N1CC=C(c2cc3c(cn2)O[C@@H](C2CCN(c4ncc(C5CC5)cn4)CC2)C3)CC1` (single isomer, unassigned) [Example 91], the EC50 was 0.003 µM. In the case of `COc1cnc(N2CCC([C@H]3Cc4cc(C5=CCN(S(C)(=O)=O)CC5)ncc4O3)CC2)nc1` (single isomer, unassigned) [Example 92], the EC50 is reported as 0.01 µM. With `CS(=O)(=O)c1ccc(-c2cc3c(cn2)O[C@@H](C2CCN(c4ncc(C5CC5)cn4)CC2)C3)cc1` (single isomer, unassigned) [Example 93] the EC50 was 0.01 µM. For `COc1cnc(N2CCC([C@H]3Cc4cc(-c5ccc(S(C)(=O)=O)cc5)ncc4O3)CC2)nc1` (single isomer, unassigned) [Example 94], the EC50 was 0.018 µM.
